Reference: patent US20120159656A1, “COMPOSITIONS AND METHODS FOR […] DEFECTS” (Galenea Corp., priority 2009, published 2012)
“Also recorded” adds a separate entry of the source.

Experiments:
[1] = system: high-power gamma oscillations in the PFC; assay: EEG recording from PFC in absence and presence of novel objects before and after PCP; type: in vivo, mouse; settings: PCP 5 mg/kg intraperitoneal, gamma 30-90 Hz
Description: Real-time monitoring of EEGs and single-unit activity (SUA) from PFC was performed via surgical implantation of 8-microwire bundle electrodes (FIG. 5A, B). […] Recordings were made using commercially available multichannel hardware (Multichannel Systems, Reutlingen, Germany). The system is capable of monitoring EEGs and SUA from PFC in freely behaving mice (FIG. 5C) and this neural activity has been characterized (FIG. 5D).
In another series of experiments, the EEG recording techniques were determined to be sensitive enough to detect pharmacologically-induced perturbations in neural activity in vivo. For these studies EEGs from PFC were measured when mice were in the absence and presence of novel environmental stimuli. To determine whether EEGs recorded from PFC are sensitive to a pharmacologic manipulation known to impair cognitive function, animals were injected intraperitoneally with PCP (5 mg/kg) and EEGs were recorded in the absence and presence of novel environmental stimuli. This experiment confirmed that high-power gamma oscillations in the PFC were elicited while animals attend to novel stimuli in the environment (FIG. 10A). […] These observations confirm that the techniques for monitoring EEGs and SUA in the PFC of freely behaving mice are sensitive enough to detect treatments known to inhibit cognition.

[2] = system: EEG power in the PFC; assay: Spectral analysis of PFC EEG by frequency band (area under the curve) in a familiar environment; type: in vivo, mouse
Description: Surgery, Animal handling and EEG recording were performed according to the methods disclosed herein (See, e.g., Examples 1-5). Recordings in a novel environment were made upon an animal's first exposure to the recording chamber. Animals were exposed to the recording chamber an additional 3 times (15 min each) to record EEGs from a familiar environment (fourth exposure).
EEG analysis. EEGs were analyzed using an automated FFT-periodogram function with Hamming windows in the Matlab analysis suite (pwelch function, The Mathworks, Inc., Natick MA). EEGs were analyzed in 10 sec intervals and power spectral analyses were computed for each 10 sec interval by averaging 1 sec power spectra with a 0.5 sec overlap across the entire 10 sec. Power across a given frequency band was determined by computing the area under the curve for various frequency bands (Theta: 4-12 Hz; GammaLow: 30-55 Hz; GammaHi: 65-90 Hz; Ripple: 100-300 Hz). Measures of power for each animal were binned and a frequency histogram representing number of events (10 sec each) observed at each power was computed. Frequency histograms across a given genotype were averaged to derive the final EEG power histogram for each frequency band.
To investigate the disease relevance of this intermediate power phenotype, EEGs were recorded from normal control animals in a familiar environment before and after they were treated with the psychotomimetic compound, phencyclidine (PCP) (5 mg/kg, IP).

[3] = system: gamma oscillations recorded from prefrontal cortex (PFC); assay: Continuous EEG recording from PFC of well-habituated mice, maximal gamma power (30-90 Hz); settings: PCP 5 mg/kg
[4] = control animals, PCP 5 mg/kg IP

c1ccc(C2(N3CCCCC3)CCCCC2)cc1 [PCP, phencyclidine]
expression of high-power gamma oscillations during novel object presentation [1]: completely blocked the expression of high-power gamma oscillations; also recorded: lack of a bimodal distribution in gamma oscillation power | average power in the GammaHi frequency band (65-90 Hz) ([2]; control animals treated with PCP 5 mg/kg IP, n=5): 19.12±0.11 | effect on power in the GammaHi frequency band (65-90 Hz) [2, 4]: significant increase in the number of high-powered events; also recorded: increased the average spectral power | effect on power in the GammaLow frequency band (30-55 Hz) [2, 4]: significantly more high-powered GammaLow events; also recorded: increased the average spectral power | effect on power in the Ripple frequency band (100-300 Hz) [2, 4]: no significant differences in power; also recorded: no effect | effect on power in the Theta frequency band (4-12 Hz) [2, 4]: significant increase; also recorded: increased the average spectral power | distribution of the power of gamma oscillations ([3]; familiar environment, normal mice): unimodal distribution of gamma oscillations with “Intermediate” power | gamma oscillation power after injection ([3]; well-habituated animals, gamma 30-90 Hz): 4 μV^2/Hz
